From publication PMC6010122 (Journal of Enzyme Inhibition and Medicinal Chemistry, 2017)
pIC50: −log10 of the molar value. Where two headings read alike, the source gives them in different places. Values belong to the compound of their own block, whether it stands above or below them.

How the values were obtained:
Ba/F3^WT cells = assay: Cellular antiproliferation assay (CCK-8), Ba/F3 expressing Bcr-Abl^WT; format: cell-based, murine; settings: Mus musculus, read-out: Antiproliferation IC50, Ba/F3^WT
K562R (Q252H) cells = assay: Cellular antiproliferation assay (CCK-8), imatinib-resistant K562R (Q252H); format: cell-based; settings: Homo sapiens, K-562R, read-out: Antiproliferation IC50, K562R (Q252H)
K562 cells = assay: Cellular antiproliferation assay (CCK-8), K562; format: cell-based; settings: Homo sapiens, read-out: Antiproliferation IC50, K562
K562 xenograft [1] = settings: mouse, in vivo, po, 10 mg/kg/day
Bcr-Abl^WT = Bcr-Abl^WT (Homo sapiens, UniProt P00519); format: biochemical
Ba/F3^T315I cells = format: cell-based, murine; settings: Mus musculus, read-out: Antiproliferation IC50, Ba/F3^T315I
[2] = test system: activation of Bcr-Abl, Crkl and STAT5 in K562 CML cells; assay: Western blot of Bcr-Abl signaling in K562 cells; format: cell-based, human; settings: 4.0 h treatment
Procedure: The Western blot analysis was carried out by following the protocol described previously. Briefly, after the indicated treatment, cell lysates were collected, dissolving cells in 1× SDS sample lysis buffer. After being sonicated and boiled, the supernatant of the cell lysate was used for Western blot analysis. Cell lysates were loaded to 8–12% SDS-PAGE and separated by electrophoresis. Separated proteins were then electrically transferred to a PVDF film. After being blocked with 1× TBS containing 0.1% Tween-20, and 5% nonfat milk, the film was incubated with corresponding primary antibody followed by HRP-conjugated secondary antibody. The protein lanes were visualized using ECL Western Blotting Detection Kit (GE Healthcare, Piscataway, NJ).
Figure 3. […] Cells were treated with GZD856 at the indicated concentrations for 4.0 h, and whole cell lysates were then subjected to Western blot analyses. The results represent three independent experiments.

K562 xenograft [3] = assay: Subcutaneous K562 xenograft model of human CML
[4] = test system: HFL-1 (human embryonic lung fibroblasts); parameters: method as in PMID 26940138; settings: human embryonic lung fibroblasts ref 26; read-out: Antiproliferative IC50, HFL-1 non-cancer cells; cited from earlier work
MOLT-4 cells = assay: Cellular antiproliferation assay (CCK-8), MOLT-4; format: cell-based; settings: Homo sapiens, read-out: Antiproliferation IC50, MOLT-4
U937 cells = assay: Cellular antiproliferation assay (CCK-8), U937; format: cell-based; settings: Homo sapiens, read-out: Antiproliferation IC50, U937

Sequence of Bcr-Abl^WT (P00519 27-1130): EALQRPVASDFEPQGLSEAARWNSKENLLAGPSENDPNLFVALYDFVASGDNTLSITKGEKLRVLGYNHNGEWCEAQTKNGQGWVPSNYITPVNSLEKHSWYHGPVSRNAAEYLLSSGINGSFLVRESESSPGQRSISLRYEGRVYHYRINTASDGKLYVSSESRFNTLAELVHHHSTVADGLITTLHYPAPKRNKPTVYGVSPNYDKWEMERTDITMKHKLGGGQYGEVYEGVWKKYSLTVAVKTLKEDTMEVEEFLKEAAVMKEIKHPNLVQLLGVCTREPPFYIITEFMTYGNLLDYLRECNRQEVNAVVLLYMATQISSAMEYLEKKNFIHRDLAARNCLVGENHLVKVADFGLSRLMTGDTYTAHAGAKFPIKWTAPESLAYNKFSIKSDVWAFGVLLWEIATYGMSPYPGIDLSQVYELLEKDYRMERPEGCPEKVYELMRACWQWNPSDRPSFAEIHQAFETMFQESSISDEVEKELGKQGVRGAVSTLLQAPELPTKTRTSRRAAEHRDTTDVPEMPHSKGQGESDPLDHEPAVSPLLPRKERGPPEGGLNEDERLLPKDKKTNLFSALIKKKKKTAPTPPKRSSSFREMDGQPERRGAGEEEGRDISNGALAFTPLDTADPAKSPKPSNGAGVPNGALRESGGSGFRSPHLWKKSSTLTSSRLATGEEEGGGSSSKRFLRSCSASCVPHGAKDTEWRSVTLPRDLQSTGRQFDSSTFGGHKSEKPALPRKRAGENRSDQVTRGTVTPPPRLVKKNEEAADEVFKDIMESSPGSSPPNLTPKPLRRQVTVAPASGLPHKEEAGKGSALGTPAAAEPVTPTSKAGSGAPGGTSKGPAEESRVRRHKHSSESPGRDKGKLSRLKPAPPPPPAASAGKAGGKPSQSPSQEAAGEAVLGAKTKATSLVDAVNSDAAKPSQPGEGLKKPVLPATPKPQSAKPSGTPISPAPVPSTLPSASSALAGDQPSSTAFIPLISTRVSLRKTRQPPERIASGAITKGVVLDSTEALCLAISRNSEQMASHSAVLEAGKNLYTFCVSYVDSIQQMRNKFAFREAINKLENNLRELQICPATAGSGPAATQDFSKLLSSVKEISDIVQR

Compound: Cc1ccc(C(=O)Nc2ccc(CN3CCN(C)CC3)c(C(F)(F)F)c2)cc1C#Cc1cnc2ccnn2c1 [GZD856, 4-Methyl-N-(4-((4-methylpiperazin-1-yl)methyl)-3-(trifluoromethyl)phenyl)-3-(pyrazolo[1,5-a]pyrimidin-6-ylethynyl)benzamide]
pIC50 (Ba/F3^WT cells; BaF3, CCK-8, 72 h): 9.19 | pIC50 (K562R (Q252H) cells; CCK-8, 72 h): 7.17 | pIC50 (K562 cells; K562, CCK-8, 72 h): 8.66 | Tolerability during treatment (K562 xenograft [1]): well tolerated with no mortality | pIC50 (Bcr-Abl^WT): 7.70 | pIC50 (Ba/F3^T315I cells; BaF3, CCK-8, 72 h): 7.97 | Suppression of activation of Bcr-Abl and downstream Crkl and STAT5 [2]: efficiently suppressed the activation | Body loss relative to vehicle-matched controls (K562 xenograft [3]; K562 xenograft mice, oral 10 mg/kg/day, during the treatment): < 5% | Tumor recurrence after cessation of treatment (K562 xenograft [3]; K562 xenograft, 10 mg/kg/day, 16 days of dosing, following 7 days): no sign of tumor recurrence | Antitumor effect on tumor (K562 xenograft [3]; K562 xenograft, oral 10 mg/kg/day, after 8 days of treatment): almost completely eradicated the tumor | pIC50 [4]: 5.17

Compound: Cc1ccc(NC(=O)c2ccc(CN3CCN(C)CC3)cc2)cc1Nc1nccc(-c2cccnc2)n1 [Imatinib, imatinib]
Antitumor effect on tumor (K562 xenograft [3]; K562 xenograft, oral 50 mg/kg/day): only induced tumor stasis

pIC50 (Ba/F3^WT cells; BaF3, 72 h): 7.66 | pIC50 (K562R (Q252H) cells; 72 h): 6.46 | pIC50 (MOLT-4 cells; MOLT-4, 72 h): 4.69 | pIC50 (K562 cells; K562, 72 h): 8.19 | pIC50 (Ba/F3^T315I cells; BaF3, 72 h): 5.84 | pIC50 (U937 cells; U-937, 72 h): 5.02
Compound: Cc1cn(-c2cc(NC(=O)c3ccc(C)c(Nc4nccc(-c5cccnc5)n4)c3)cc(C(F)(F)F)c2)cn1 [Nilotinib]

pIC50 (MOLT-4 cells; MOLT-4, 72 h): 8.11 | pIC50 (K562 cells; K562, 72 h): 9.30 | pIC50 (U937 cells; U-937, 72 h): 9.00
Compound: Cc1ccc(C(=O)Nc2ccc(CN3CCN(C)CC3)c(C(F)(F)F)c2)cc1C#Cc1cnc2cccnn12 [Ponatinib, 3-[2-(imidazo[1,2-b]pyridazin-3-yl)ethynyl]-4-methyl-N-{4-[(4-methyl-piperazin-1-yl)methyl]-3-(trifluoromethyl)phenyl}benzamide]

pIC50 (K562R (Q252H) cells; CCK-8, 72 h): 8.15 | pIC50 (MOLT-4 cells; MOLT-4, CCK-8, 72 h, negative for Bcr-Abl expression): 8.57 | pIC50 (K562 cells; K562, CCK-8, 72 h): 8.29 | pIC50 (U937 cells; U-937, CCK-8, 72 h, negative for Bcr-Abl expression): 8.64
Compound: CC(=O)O[C@H]1C(=O)[C@@]2(C)[C@H]([C@H](OC(=O)c3ccccc3)[C@]3(O)C[C@H](OC(=O)[C@H](O)[C@@H](NC(=O)c4ccccc4)c4ccccc4)C(C)=C1C3(C)C)[C@]1(OC(C)=O)CO[C@@H]1C[C@@H]2O [Taxol]
